For experiment [1] the following is noted: N. Pant et al and P. M. Booth et al; cited from earlier work.
In experiment [2] the test system is Staph. haemolyticus clin. isolate (TLS). The experiment can be described thus: In vitro MIC, microdilution method in broth. The experiment is classed as cell-based. The following applies: inoculum 10^5 cfu/ml, 18-24 hours at 37° C. On the procedure:
(§1) The antimicrobial activity, expressed as minimal inhibitory concentration (MIC), of the hexapeptide of formula (I), R=hydrogen, against selected strains of Gram-positive bacteria was determined in comparison with teicoplanin. The microdilution method in DIFCO TODDO-HEWITT broth (Streptococci) or OXOID ISO-SENSITEST broth (Staphylococci) was used.
(§2) TLS = Low Sensitive to Teicoplanin
(§3) *Inoculum: 10^5 cfu/ml.
(Dilution methods test growth across graded concentrations, often in twofold steps.)

In the next experiment the test system is Staph. aureus (TLS). As to the kind of experiment: In vitro MIC, microdilution method in broth. The experiment is classed as cell-based. Particulars: Staph. aureus (TLS = Low Sensitive to Teicoplanin); inoculum 10^5 cfu/ml; 18-24 hours at 37° C. On the procedure: as §1, §2, §3
For another experiment, the system named is Staph. epidermidis (TLS). The experiment can be described thus: In vitro MIC, microdilution method in broth. The experiment is classed as cell-based. Particulars: Staph. epidermidis (TLS = Low Sensitive to Teicoplanin); inoculum 10^5 cfu/ml; 18-24 hours at 37° C. How it is done: as §1, §2, §3
For experiment [3], the system named is two strains of S. aureus and S. epidermidis low sensitive to teicoplanin. The experiment can be described thus: Activity relative to teicoplanin (from MIC). The experiment is classed as cell-based. How it is done: as §1
In experiment [4] the test system is Staph. epidermidis ATCC 12228. The experiment can be described thus: In vitro MIC, microdilution method in broth. The following applies: inoculum 10^5 cfu/ml, 18-24 hours at 37° C. Type of experiment: cell-based. How it is done:
as §1, §3

The subject of another experiment is Strep. pneumoniae UC 41. As to the kind of experiment: In vitro MIC, microdilution method in broth. Type of experiment: cell-based. Particulars: DIFCO TODDO-HEWITT broth, inoculum 10^5 cfu/ml, 18-24 hours at 37° C. On the procedure: as §1, §3
For experiment [5], the system named is Entero. faecalis ATCC 7080. The experiment can be described thus: In vitro MIC, microdilution method in broth. The experiment is classed as cell-based. The following applies: inoculum 10^5 cfu/ml, 18-24 hours at 37° C. How it is done:
as §1, §3

Another experiment concerns Staph. aureus Tour. The experiment can be described thus: In vitro MIC, microdilution method in broth. The experiment is classed as cell-based. The following applies: OXOID ISO-SENSITEST broth, inoculum 10^5 cfu/ml, 18-24 hours at 37° C. How it is done:
as §1, §3

Another experiment has as its system Strep. pyogenes C 203. As to the kind of experiment: In vitro MIC, microdilution method in broth. The experiment is classed as cell-based. The following applies: DIFCO TODDO-HEWITT broth, inoculum 10^5 cfu/ml, 18-24 hours at 37° C. On the procedure:
as §1, §3

The term MIC denotes the lowest concentration found to suppress growth.

In the case of Aglucovancomycin Hexapeptide, in experiment [1], the Biological activity entry was “inactivity”.

For “aglucoteicoplanin hexapeptide [Example 1]”, the MIC in experiment [2] amounted to 16 µg/mL; against Staph. aureus (TLS), 2 µg/mL; with Staph. epidermidis (TLS) it was 1 µg/mL; in [4], 0.5 µg/mL; with Strep. pneumoniae UC 41, 4 µg/mL; in [5], 8 µg/mL. The MIC in the experiment with Staph. aureus Tour worked out at 2 µg/mL; with Strep. pyogenes C 203, 8 µg/mL. In experiment [3], the “Activity compared with teicoplanin” value is recorded as “four to sixteen times more active”.

On to teicoplanin, for which the minimal inhibitory concentration (MIC) was 16 µg/mL in experiment [2]; 8 µg/mL in the experiment with Staph. aureus (TLS); 16 µg/mL against Staph. epidermidis (TLS); 0.5 µg/mL in experiment [4]; 0.063 µg/mL against Strep. pneumoniae UC 41; 0.125 µg/mL in experiment [5]. For the same substance, the minimum inhibitory concentration (MIC) amounted to 0.5 µg/mL with Staph. aureus Tour and 0.063 µg/mL with Strep. pyogenes C 203.

vancomycin hexapeptide: in experiment [1], the Biological activity result is “inactivity”.

The values are drawn from patent US5438117A, “Hexapeptides deriving from aglucoteicoplanin and a process for preparing them” (Gruppo Lepetit S.p.A., priority 1990, dated 1995).
